In assay [1] the target is T1, HDAC-1 (Homo sapiens, UniProt Q13547).
T1 construct: made in house; host or cells: Sf9 or Sf21 insect cells (baculovirus, donor vector pFB-GSTX3)
The experiment in a line: HDAC inhibition assay (purified GST-HDAC protein). The class given is biochemical. From the text: The baculovirus donor vector pFB-GSTX3 was used to generate a recombinant baculovirus that can express the HDAC polypeptide. Transfer vectors containing the HDAC coding region were transfected into the DH10Bac cell line (GIBCO) and plated on selective agar plates. Colonies without insertion of the fusion sequence into the viral genome (carried by the bacteria) were blue. Single, white colonies were picked and viral DNAs (bacmid) were isolated from the bacteria by standard plasmid purification procedures. Sf9 cells or Sf21 (American Type Culture Collection) cells were then transfected in […] flasks with the viral DNA using Cellfectin reagent.
Virus-containing media was collected from the transfected cell culture and used for infection to increase its titer. Virus-containing media obtained after two rounds of infection was used for large-scale protein expression. For large-scale protein expression 100 cm^2 round tissue culture plates were seeded with 5×10^7 cells/plate and infected with 1 mL of virus-containing media (at an approximately MOI of 5). After 3 days, the cells were scraped off the plate and centrifuged at 500 rpm for 5 minutes. Cell pellets from 10-20, 100 cm^2 plates, were re-suspended in 50 mL of ice-cold lysis buffer (25 mM tris-HCl, pH 7.5, 2 mM EDTA, 1% NP-40, 1 mM DTT, 1 mM P MSF). The cells were stirred on ice for 15 minutes and then centrifuged at 5,000 rpms for 20 minutes.
The centrifuged cell lysate was loaded onto a 2 mL glutathione-sepharose column (Pharmacia) and was washed thrice with 10 mL of 25 mM tris-HCl, pH 7.5, 2 mM EDTA, 1 mM DTT, 200 mM NaCl. The GST-tagged proteins were then eluted by 10 applications (1 mL each) of 25 mM tris-HCl, pH 7.5, 10 mM reduced-glutathione, 100 mM NaCl, 1 mM DTT, 10% glycerol and stored at −70° C.
HDAC assays with purified GST-HDAC protein were carried out in a final volume of 30 μL containing 15 ng of GST-HDAC protein, 20 mM tris-HCl, pH 7.5, 1 mM MnCl2, 10 mM MgCl2, 1 mM DTT, 3 μg/mL poly(Glu,Tyr) 4:1, 1% DMSO, 2.0 μM ATP (γ-[^33P]-ATP 0.1 μCi). The activity was assayed in the presence or absence of inhibitors. The assay was carried out in 96-well plates at ambient temperature for 15 minutes under conditions described below and terminated by the addition of 20 μL of 125 mM EDTA. Subsequently, 40 μL of the reaction mixture were transferred onto EMMOBILON-PVDF membrane (Millipore) previously soaked for 5 minutes with methanol, rinsed with water, then soaked for 5 minutes with 0.5% H3PO4 and mounted on vacuum manifold with disconnected vacuum source. After spotting all samples, a vacuum was connected and each well rinsed with 200 μL 0.5% H3PO4. Membranes were removed and washed four times on a shaker with 1.0% H3PO4, once with ethanol. Membranes were counted after drying at ambient temperature, mounting in Packard TopCount 96-well frame, and addition of 10 μL/well of MICROSCINT™ (Packard). IC50 values were calculated by linear regression analysis of the percentage inhibition of each compound in duplicate, at 4 concentrations (usually 0.01, 0.1, 1 and 10 μM).
• Input: 3×4 μL stopped assay on IMMOBILON membrane, not washed • Background (3 wells): assay with H2O instead of enzyme • Positive control (4 wells): 3% DMSO instead of compound • Bath control (1 well): no reaction mix
IC50 values were calculated by logarithmic regression analysis of the percentage inhibition of each compound at 4 concentrations (usually 3- or 10-fold dilution series starting at 10 μM). In each experiment, the actual inhibition by reference compound was used for normalization of IC50 values to the basis of an average value of the reference inhibitor: Normalized IC50=measured IC50 average ref IC50/measured ref IC50
Example: Reference inhibitor in experiment 0.4 μM, average 0.3 μM, Test compound in experiment 1.0 μM, normalization: 0.3/0.4=0.75 μM
For example, known HDAC inhibitors or a synthetic derivative thereof may be used as reference compounds.

The test system of assay [2] is HCT116. Briefly: HCT116 IC50. The class given is cell-based. The following applies: Homo sapiens, HCT-116.

The record followed here is patent US8349883B2, “Hydroxamate-based inhibitors of deacetylases B” (Novartis AG, priority 2008, dated 2013).

The structures appear in SMILES notation.

T1 sequence (Q13547 whole entry, species assumed): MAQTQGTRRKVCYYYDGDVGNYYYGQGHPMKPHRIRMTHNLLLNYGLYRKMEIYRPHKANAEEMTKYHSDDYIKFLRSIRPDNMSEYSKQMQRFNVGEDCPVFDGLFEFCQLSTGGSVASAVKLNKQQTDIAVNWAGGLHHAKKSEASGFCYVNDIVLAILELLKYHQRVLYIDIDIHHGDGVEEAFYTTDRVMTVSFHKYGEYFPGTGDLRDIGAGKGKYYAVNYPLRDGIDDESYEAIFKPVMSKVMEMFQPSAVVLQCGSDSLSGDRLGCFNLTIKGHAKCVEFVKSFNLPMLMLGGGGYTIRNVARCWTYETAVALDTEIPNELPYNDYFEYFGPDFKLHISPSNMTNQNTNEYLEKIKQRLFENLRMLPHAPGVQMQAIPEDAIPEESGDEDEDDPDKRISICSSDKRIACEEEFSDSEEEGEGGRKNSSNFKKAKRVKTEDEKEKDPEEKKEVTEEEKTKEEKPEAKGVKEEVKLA

As for `Cc1noc(-c2ccccc2)c1CCN1CCC[C@H]1c1ccc(/C=C/C(=O)NO)cc1` [Compound 56, (E)-N-Hydroxy-3-(4-{(S)-1-[2-(3-methyl-5-phenyl-isoxazol-4-yl)-ethyl]-pyrrolidin-2-yl}-phenyl)-acrylamide], the IC50 – broadly, the concentration at which inhibition is half-maximal – in assay [1] was 1.7 nM; in assay [2] it was 5 nM.
On the same counts, the results for `Cc1oc(-c2ccccc2)nc1CCN1CCC[C@H]1c1ccc(/C=C/C(=O)NO)cc1` [Compound 57, (E)-N-Hydroxy-3-(4-{(S)-1-[2-(5-methyl-2-phenyl-oxazol-4-yl)-ethyl]-pyrrolidin-2-yl}-phenyl)-acrylamide] are 1.4 nM and 1 nM.
`O=C(/C=C/c1ccc([C@@H]2CCCN2CCc2cn[nH]c2)cc1)NO` [Compound 58, (E)-N-Hydroxy-3-(4-{(S)-1-[2-(1H-pyrazol-4-yl)-ethyl]-pyrrolidin-2-yl}-phenyl)-acrylamide]: the IC50 in assay [1] is 7 nM; in assay [2], 36 nM.
The matching figures for `Cn1cc(CCN2CCC[C@H]2c2ccc(/C=C/C(=O)NO)cc2)cn1` [Compound 59, (E)-N-Hydroxy-3-(4-{(S)-1-[2-(1-methyl-1H-pyrazol-4-yl)-ethyl]-pyrrolidin-2-yl}-phenyl)-acrylamide]: 8 nM and 35 nM.
On the same counts, the results for `Cc1nn(C)c(C)c1CCN1CCC[C@H]1c1ccc(/C=C/C(=O)NO)cc1` [Compound 60, (E)-N-Hydroxy-3-(4-{(S)-1-[2-(1,3,5-trimethyl-1H-pyrazol-4-yl)-ethyl]-pyrrolidin-2-yl}-phenyl)-acrylamide] are 1.8 nM and 4 nM.
The matching figures for `Cc1nn(C(C)(C)C)c(C)c1CCN1CCC[C@H]1c1ccc(/C=C/C(=O)NO)cc1` [Compound 61, (E)-3-(4-{(S)-1-[2-(1-tert-Butyl-3,5-dimethyl-1H-pyrazol-4-yl)-ethyl]-pyrrolidin-2-yl}-phenyl)-N-hydroxy-acrylamide]: 7 nM and 8 nM.
For the compound `Cc1nn(CC2CC2)c(C)c1CCN1CCC[C@H]1c1ccc(/C=C/C(=O)NO)cc1` [Compound 62, (E)-3-(4-{(S)-1-[2-(1-Cyclopropylmethyl-3,5-dimethyl-1H-pyrazol-4-yl)-ethyl]-pyrrolidin-2-yl}-phenyl)-N-hydroxy-acrylamide], the IC50 in assay [1] and in assay [2] was 2 nM in each case.
Take `O=C(/C=C/c1ccc([C@@H]2CCCN2CCn2cccn2)cc1)NO` [Compound 63, (E)-N-Hydroxy-3-{4-[(S)-1-(2-pyrazol-1-yl-ethyl)-pyrrolidin-2-yl]-phenyl}-acrylamide]: the IC50 worked out at 42 nM in assay [1] and 180 nM in assay [2].
In the case of `Cc1cnn(CCN2CCC[C@H]2c2ccc(/C=C/C(=O)NO)cc2)c1` [Compound 64, (E)-N-Hydroxy-3-(4-{(S)-1-[2-(4-methyl-pyrazol-1-yl)-ethyl]-pyrrolidin-2-yl}-phenyl)-acrylamide], the IC50 in assay [1] came out at 62 nM; in assay [2] it was 190 nM.
With `O=C(/C=C/c1ccc([C@@H]2CCCN2CCn2cc(Br)cn2)cc1)NO` [Compound 65, (E)-3-(4-{(S)-1-[2-(4-Bromo-pyrazol-1-yl)-ethyl]-pyrrolidin-2-yl}-phenyl)-N-hydroxy-acrylamide], the IC50 worked out at 35 nM in assay [1] and 180 nM in assay [2].
The matching figures for `Cc1cc(C)n(CCN2CCC[C@H]2c2ccc(/C=C/C(=O)NO)cc2)n1` [Compound 66, (E)-3-(4-{(S)-1-[2-(3,5-Dimethyl-pyrazol-1-yl)-ethyl]-pyrrolidin-2-yl}-phenyl)-N-hydroxy-acrylamide]: 28 nM and 61 nM.
Take `Cc1nn(CCN2CCC[C@H]2c2ccc(/C=C/C(=O)NO)cc2)c(C)c1C` [Compound 67, (E)-N-Hydroxy-3-(4-{1-[2-(3,4,5-trimethyl-pyrazol-1-yl)-ethyl]-pyrrolidin-2-yl}-phenyl)-acrylamide]: the results for the half-inhibitory concentration (IC50) in assay [1] and in assay [2] were 17 nM and 39 nM, respectively.
Regarding `Cc1c(CC(C)(C)C)nn(CCN2CCC[C@H]2c2ccc(/C=C/C(=O)NO)cc2)c1O` [Compound 68, (E)-3-[4-((S)-1-{2-[3-(2,2-Dimethyl-propyl)-5-hydroxy-4-methyl-pyrazol-1-yl]-ethyl}-pyrrolidin-2-yl)-phenyl]-N-hydroxy-acrylamide], the IC50 in assay [1] was found to be 40 nM; in assay [2], 160 nM.
The matching figures for `Cc1nn(CCN2CCC[C@H]2c2ccc(/C=C/C(=O)NO)cc2)c(C)c1Br` [Compound 69, (E)-3-(4-{(S)-1-[2-(4-Bromo-3,5-dimethyl-pyrazol-1-yl)-ethyl]-pyrrolidin-2-yl}-phenyl)-N-hydroxy-acrylamide]: 25 nM and 170 nM.
On the same counts, the results for `Cc1nn(CCN2CCC[C@H]2c2ccc(/C=C/C(=O)NO)cc2)cc1Br` [Compound 70, (E)-3-(4-{(S)-1-[2-(4-Bromo-3-methyl-pyrazol-1-yl)-ethyl]-pyrrolidin-2-yl}-phenyl)-N-hydroxy-acrylamide] are 30 nM and 96 nM.
On the same counts, the results for `Cc1ccn(CCN2CCC[C@H]2c2ccc(/C=C/C(=O)NO)cc2)n1` [Compound 71, (E)-N-Hydroxy-3-(4-{(S)-1-[2-(3-methyl-pyrazol-1-yl)-ethyl]-pyrrolidin-2-yl}-phenyl)-acrylamide] are 55 nM and 110 nM.
As to `Cc1ccnn1CCN1CCC[C@H]1c1ccc(/C=C/C(=O)NO)cc1` [Compound 72, (E)-N-Hydroxy-3-(4-{(S)-1-[2-(5-methyl-pyrazol-1-yl)-ethyl]-pyrrolidin-2-yl}-phenyl)-acrylamide], the IC50 in assay [1] was 19 nM; in assay [2] it was 31 nM.
Take `O=C(/C=C/c1ccc([C@@H]2CCCN2CCn2ccc(C(F)(F)F)n2)cc1)NO` [Compound 73, (E)-N-Hydroxy-3-(4-{(S)-1-[2-(3-trifluoromethyl-pyrazol-1-yl)-ethyl]-pyrrolidin-2-yl}-phenyl)-acrylamide]: the IC50 stood at 71 nM in assay [1] and 230 nM in assay [2].
With `O=C(/C=C/c1ccc([C@@H]2CCCN2CCc2cn(CCOCc3ccccc3)nn2)cc1)NO` [Compound 76, (E)-3-[4-((S)-1-{2-[1-(2-Benzyloxy-ethyl)-1H-[1,2,3]triazol-4-yl]-ethyl}-pyrrolidin-2-yl)-phenyl]N-hydroxy-acrylamide], the figures for the IC50 in assay [1] and in assay [2] were 31 nM and 210 nM, respectively.
On to `C[Si](C)(C)Cn1cc(CCN2CCC[C@H]2c2ccc(/C=C/C(=O)NO)cc2)nn1` [Compound 77, (E)-N-Hydroxy-3-(4-{(S)-1-[2-(1-trimethylsilanylmethyl-1H-[1,2,3]triazol-4-yl)-ethyl]-pyrrolidin-2-yl}-phenyl)-acrylamide], for which the IC50 amounted to 25 nM in assay [1] and 110 nM in assay [2].
The matching figures for `O=C(/C=C/c1ccc([C@@H]2CCCN2CCc2cn(Cc3ccccc3)nn2)cc1)NO` [Compound 78, (E)-3-(4-{(S)-1-[2-(1-Benzyl-1H-[1,2,3]triazol-4-yl)-ethyl]-pyrrolidin-2-yl}-phenyl)-N-hydroxy-acrylamide]: 22 nM and 120 nM.
The matching figures for `Nc1ccc(-n2cc(CCN3CCC[C@H]3c3ccc(/C=C/C(=O)NO)cc3)nn2)cc1` [Compound 79, (E)-3-[4-((S)-1-{2-[1-(4-Amino-phenyl)-1H-[1,2,3]triazol-4-yl]-ethyl}-pyrrolidin-2-yl)-phenyl]-N-hydroxy-acrylamide]: 6 nM and 43 nM.
